The values that follow come from PubChem BioAssay (NCI).

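Briefly, cells in 96-well plates were exposed to five compound concentrations for 48 h, and endpoints were estimated by linear interpolation. Definition used: TGI = concentration required for complete inhibition of growth.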 Bounds are passed on as bounds.

Common to all, as to assay: NCI-60 cell line screen, 48 h
Assay [1] concerns M19-MEL melanoma.
Assay [2] relates to HCT-116 colon.
Assay [3] deals with COLO 205 colon.
For assay [4], the system named is T-47D breast.
Assay [5] has as its system XF 498 CNS.
The subject of assay [6] is DMS 273 small cell lung.
Assay [7] relates to SNB-78 CNS.
Assay [8] relates to PC-3 prostate.
Assay [9] concerns A498 renal.
The subject of assay [10] is LXFL 529 NSCLC.
Assay [11] relates to HOP-18 NSCLC.
Assay [12] has as its system DMS 114 small cell lung.
Assay [13] relates to A549 NSCLC.
Assay [14] relates to DLD-1 colon.
In assay [15] the test system is KM20L2 colon.
Assay [16] has as its system RXF-631 renal.

As to `Cn1ccn2c3nc4ccccc4nc3c(=O)c(C#N)c12`, the TGI in assay [1], in assay [2], in assay [3], in [4], in assay [5] and in assay [6] was over 100 µM each time. In addition, the TGI in assay [7], in assay [8], in [9], in assay [10], in [11] and in [12] was over 100 µM each time. Also, the TGI in assay [13] and in assay [14] was over 100 µM each time.
`CCOc1ccc(/C=C(\Cl)c2ccc(OC)c(OC)c2)cc1`: the TGI in assay [1], in assay [2], in [3], in assay [5], in assay [6] and in [7] was over 100 µM in each case. Further, the TGI was over 100 µM in [9]; over 100 µM in [10]; over 100 µM in assay [11]; over 100 µM in assay [12]; 40.1 µM in assay [15]; over 100 µM in assay [13]. The TGI in assay [14] was over 100 µM.
Regarding `O=C(Nc1nc2ccccc2n1Cc1ccccc1)NC12CC3CC(CC(C3)C1)C2`, the TGI in assay [1] is over 100 µM; in [2], over 100 µM; in assay [3] it was over 100 µM; in assay [5], 73.8 µM; in [6], 55.1 µM; in [7], 49.1 µM. Further, the TGI in [10], in assay [11], in assay [12], in assay [15], in assay [13] and in assay [14] was over 100 µM in each case.
As for `O=C(O)CCCCCOc1cccnc1/C=N/NC1=NCCN1`, the TGI in assay [1], in assay [2], in assay [3], in assay [5], in assay [6] and in assay [7] was over 100 µM in each case. The TGI in assay [9], in assay [10], in assay [11], in assay [15], in assay [13] and in assay [14] was over 100 µM each time.
In the case of `Cc1ccc(S(=O)(=O)NC(=O)NC23CC4CC(CC(F)(C4)C2)C3)cc1`, the TGI in assay [1], in [2], in assay [3], in assay [5], in assay [6] and in assay [7] was over 100 µM each time. Moreover, the TGI in [9], in assay [10], in assay [12], in assay [15], in assay [13] and in assay [14] was over 100 µM each time.
On to `N=c1nnc(=O)c2c(s1)-n1ncc(C(=O)O)c1NN2`, for which the TGI in [1], in assay [2], in [3], in assay [10], in assay [11] and in assay [12] was over 100 µM throughout. The TGI in [15], in assay [13] and in [14] was over 100 µM in each case.
On to `NC(=O)N/N=C/C(/C=N/NC(N)=O)[N+](=O)[O-]`, for which the TGI in assay [1], in [2], in [3], in [16], in [5] and in assay [9] was over 100 µM each time. Also, the TGI in assay [10], in assay [12], in [15], in [13] and in assay [14] was over 100 µM each time.
Consider `CN(CN1C(=O)C2Cc3ccccc3CN2C1=O)c1ccccn1` (centres undefined), for which the TGI in assay [1], in assay [3], in assay [5], in assay [6], in assay [9] and in assay [10] was over 100 µM each time. Besides, the TGI in [12], in assay [15], in assay [13] and in [14] was over 100 µM each time.
Regarding `O=C1O/C(=C(\Br)c2cccc3ccccc23)c2ccccc21`, the TGI in [1] was over 58.5 µM; in assay [2], over 61.9 µM; in assay [3], over 53.8 µM; in [6], over 54.9 µM; in assay [7], over 100 µM; in [9], 34.6 µM. In addition, the TGI was over 62.7 µM in assay [10]; 36.4 µM in [11]; over 48.4 µM in assay [12]; over 59.5 µM in assay [15]; 35.9 µM in assay [13]; over 66.7 µM in assay [14].
Consider `CN(C)c1ccc(/C=C2\N=C(NN)NC2=O)cc1`, for which the TGI in assay [2], in assay [3], in [4], in [8], in assay [9] and in assay [13] was over 100 µM throughout.
As for `Cc1nc2c(n1C(C)(C)C)C(=O)c1ccccc1C2=O`, the TGI in [1] is 76.5 µM; in assay [2], over 100 µM; in assay [3], over 100 µM; in assay [5], over 100 µM; in [6], over 100 µM; in assay [7] it was over 100 µM. The TGI in assay [10], in [15], in [13] and in [14] was over 100 µM each time.
As for `COc1ccc2cc1Oc1ccc(cc1)C(Sc1ccccc1)CCOC(=O)CC2` (centres undefined), the TGI in assay [2], in [3], in [4], in assay [8], in [9] and in assay [13] was over 100 µM each time.
As to `N#Cc1c(SCc2ccccc2)nc(-c2ccccc2)[nH]c1=S`, the TGI in assay [2] was 51.8 µM; in assay [3], 48.8 µM; in assay [4], 80.2 µM; in assay [8] it was 35.2 µM; in assay [9] it was 63.8 µM; in assay [13], over 100 µM.
Take `O=C1CSC(/C(=C\c2ccc(Cl)cc2)c2nc3ccccc3[nH]2)=N1`: the TGI in [1] turned out to be 28.8 µM; in assay [2], 30.4 µM; in assay [3], 36.4 µM; in [4], 31.7 µM; in assay [5], 3.01 µM; in [6] it was 37.6 µM. The TGI in assay [7] was over 100 µM; in assay [8], 36.5 µM; in assay [9], 16 µM; in assay [10] it was 35.2 µM; in [15] it was 52.1 µM; in [13] it was 16.4 µM. This molecule had a TGI in [14] of 32.5 µM.
Regarding `O=C(Nc1cccc(C(F)(F)F)c1)O/N=C(/Cl)CCl`, the TGI in assay [2], in assay [3], in [4], in assay [8], in assay [9] and in assay [13] was over 100 µM each time.
As to `CCOC(=O)c1cc(C(=O)c2ccccc2)n2nc(-c3ccc(Cl)cc3)ccc12`, the TGI was over 100 µM in [2]; over 100 µM in assay [3]; 92.3 µM in assay [4]; 30.4 µM in assay [8]; 49 µM in assay [9]; 30.8 µM in [13].
Consider `COc1ccccc1-c1cc(=O)c2ccccc2[nH]1`, for which the TGI in assay [1], in [2], in [3], in assay [6], in assay [7] and in assay [10] was over 100 µM in each case. For the same molecule, the TGI in assay [15], in assay [13] and in assay [14] was over 100 µM throughout.
For the molecule `Cc1ccc(OCC2OC(n3cnc4c(N(C)C)nc(Br)nc43)CC2Oc2ccc(C)cc2)cc1` (centres undefined), the TGI in assay [2], in assay [3], in [4], in assay [8], in assay [9] and in [13] was over 100 µM in each case.
For `CC(=O)N1CCc2c([nH]c3ccc(Br)cc23)C1c1ccccc1` (centres undefined), the TGI in [2], in assay [3], in [4], in assay [8], in assay [9] and in [13] was over 10 µM each time.
